Measurements reported in US20230157952A1, “METHOD FOR IMPROVING THE STABILITY OF A PHARMACEUTICAL COMPOSITION COMPRISING A HIGH PENETRATION DRUG, AND THE PHARMACEUTICAL COMPOSITION OBTAINED THEREFROM” (Techfields Inc., priority 2020, published 2023).
Non-standard residues stand in square brackets, D forms with d. Arg(NO2) = N=C(NCCC[C@H](N)C(=O)O)N[N+](=O)[O-]

How the values were obtained:
[1] = Effect of temperature (and pH) on the stability of the solution (purity); type: physicochemical; settings: 7% solution in water
[2] = Effect of concentration on the stability of the solution (purity over time); settings: 1 equivalent sodium acetate in 50% ethanol at 25° C.

What does the source list for `CCN(CC)CCOC(=O)Cc1c(C)n(C(=O)c2ccc(Cl)cc2)c2ccc(OC)cc12.Cl`?
Purity(%) at day 0 ([1]; pH 1.0, day 0): 98.1 ± 0.3%; Purity(%) at day 21 (5° C.) ([1]; pH 1.0, day 21, 5° C.): 92.3 ± 0.3%; Purity(%) at day 21 (25° C.) ([1]; pH 1.0, day 21, 25° C.): 69.0 ± 0.3%; Purity(%) at day 21 (40° C.) ([1]; pH 1.0, day 21, 40° C.): 15.3 ± 0.3%; Purity (%) at day 21 (60° C.) ([1]; pH 1.0, day 21, 60° C.): 0%; Purity(%) at day 0 ([1]; pH 2.0, day 0): 98.3 ± 0.4%; Purity(%) at day 21 (5° C.) ([1]; pH 2.0, day 21, 5° C.): 95.9 ± 0.3%; Purity(%) at day 21 (25° C.) ([1]; pH 2.0, day 21, 25° C.): 83.1 ± 0.3%; Purity(%) at day 21 (40° C.) ([1]; pH 2.0, day 21, 40° C.): 27.5 ± 0.3%; Purity (%) at day 21 (60° C.) ([1]; pH 2.0, day 21, 60° C.): 0%; Purity(%) at day 0 ([1]; pH 3.0, day 0): 98.5 ± 0.2%; Purity(%) at day 21 (5° C.) ([1]; pH 3.0, day 21, 5° C.): 97.3 ± 0.3%; Purity(%) at day 21 (25° C.) ([1]; pH 3.0, day 21, 25° C.): 94.5 ± 0.2%; Purity(%) at day 21 (40° C.) ([1]; pH 3.0, day 21, 40° C.): 49.3 ± 0.3%; Purity (%) at day 21 (60° C.) ([1]; pH 3.0, day 21, 60° C.): 0%; Purity(%) at day 0 ([1]; pH 3.7, day 0): 98.5 ± 0.2%; Purity(%) at day 21 (5° C.) ([1]; pH 3.7, day 21, 5° C.): 97.7 ± 0.2%; Purity(%) at day 21 (25° C.) ([1]; pH 3.7, day 21, 25° C.): 97.3 ± 0.3%; Purity(%) at day 21 (40° C.) ([1]; pH 3.7, day 21, 40° C.): 57.9 ± 0.2%; Purity (%) at day 21 (60° C.) ([1]; pH 3.7, day 21, 60° C.): 16.3 ± 0.5%; Purity(%) at day 0 ([1]; pH 4.0, day 0): 98.7 ± 0.1%; Purity(%) at day 21 (5° C.) ([1]; pH 4.0, day 21, 5° C.): 98.1 ± 0.3%; Purity(%) at day 21 (25° C.) ([1]; pH 4.0, day 21, 25° C.): 97.5 ± 0.2%; Purity(%) at day 21 (40° C.) ([1]; pH 4.0, day 21, 40° C.): 68.7 ± 0.3%; Purity (%) at day 21 (60° C.) ([1]; pH 4.0, day 21, 60° C.): 19.6 ± 0.3%; Purity(%) at day 0 ([1]; pH 4.3, day 0): 98.8 ± 0.2%; Purity(%) at day 21 (5° C.) ([1]; pH 4.3, day 21, 5° C.): 98.3 ± 0.3%; Purity(%) at day 21 (25° C.) ([1]; pH 4.3, day 21, 25° C.): 97.3 ± 0.3%; Purity(%) at day 21 (40° C.) ([1]; pH 4.3, day 21, 40° C.): 70.1 ± 0.3%; Purity (%) at day 21 (60° C.) ([1]; pH 4.3, day 21, 60° C.): 17.7 ± 0.2%; Purity(%) at day 0 ([1]; pH 4.6, day 0): 98.7 ± 0.1%; Purity(%) at day 21 (5° C.) ([1]; pH 4.6, day 21, 5° C.): 98.2 ± 0.2%; Purity(%) at day 21 (25° C.) ([1]; pH 4.6, day 21, 25° C.): 96.4 ± 0.2%; Purity(%) at day 21 (40° C.) ([1]; pH 4.6, day 21, 40° C.): 56.3 ± 0.2%; Purity (%) at day 21 (60° C.) ([1]; pH 4.6, day 21, 60° C.): 15.3 ± 0.3%; Purity(%) at day 0 ([1]; pH 5.0, day 0): 98.6 ± 0.3%; Purity(%) at day 21 (5° C.) ([1]; pH 5.0, day 21, 5° C.): 97.0 ± 0.2%; Purity(%) at day 21 (25° C.) ([1]; pH 5.0, day 21, 25° C.): 94.1 ± 0.3%; Purity(%) at day 21 (40° C.) ([1]; pH 5.0, day 21, 40° C.): 42.8 ± 0.3%; Purity (%) at day 21 (60° C.) ([1]; pH 5.0, day 21, 60° C.): 1.9 ± 0.2%; Purity(%) at day 0 ([1]; pH 6.0, day 0): 98.5 ± 0.4%; Purity(%) at day 21 (5° C.) ([1]; pH 6.0, day 21, 5° C.): 95.3 ± 0.3%; Purity(%) at day 21 (25° C.) ([1]; pH 6.0, day 21, 25° C.): 87.8 ± 0.2%; Purity(%) at day 21 (40° C.) ([1]; pH 6.0, day 21, 40° C.): 27.6 ± 0.2%; Purity (%) at day 21 (60° C.) ([1]; pH 6.0, day 21, 60° C.): 0%; Purity(%) at day 0 ([1]; pH 7.0, day 0): 98.4 ± 0.3%; Purity(%) at day 21 (5° C.) ([1]; pH 7.0, day 21, 5° C.): 90.2 ± 0.3%; Purity(%) at day 21 (25° C.) ([1]; pH 7.0, day 21, 25° C.): 59.9 ± 0.3%; Purity(%) at day 21 (40° C.) ([1]; pH 7.0, day 21, 40° C.): 11.4 ± 0.4%; Purity (%) at day 21 (60° C.) ([1]; pH 7.0, day 21, 60° C.): 0%; Purity(%) at day 0 ([1]; pH 8.0, day 0): 98.0 ± 0.5%; Purity(%) at day 21 (5° C.) ([1]; pH 8.0, day 21, 5° C.): 79.3 ± 0.4%; Purity(%) at day 21 (25° C.) ([1]; pH 8.0, day 21, 25° C.): 47.6 ± 0.3%; Purity(%) at day 21 (40° C.) ([1]; pH 8.0, day 21, 40° C.): 0%; Purity (%) at day 21 (60° C.) ([1]; pH 8.0, day 21, 60° C.): 0%

Which results are given for “H-Val-Pro-Gly-Pro-Arg(NO2)—OCH2CH3•HCl (H-VPGP[Arg(NO2)]-OEt; also: HCl salt)”?
Purity at Day 30 ([2]; 0.01 wt %): 55.5%; Purity at Day 90 ([2]; 0.01 wt %): 22.2%; Purity at Day 180 ([2]; 0.01 wt %): 0%; Purity at day 0 ([2]; 0.01 wt %): 98.1%; Purity at Day 30 ([2]; 0.1 wt %): 65.7%; Purity at Day 90 ([2]; 0.1 wt %): 31.3%; Purity at Day 180 ([2]; 0.1 wt %): 9.6%; Purity at day 0 ([2]; 0.1 wt %): 98.2%; Purity at Day 30 ([2]; 1 wt %): 91.1%; Purity at Day 90 ([2]; 1 wt %): 77.3%; Purity at Day 180 ([2]; 1 wt %): 58.6%; Purity at day 0 ([2]; 1 wt %): 98.5%; Purity at Day 30 ([2]; 3 wt %): 96.8%; Purity at Day 90 ([2]; 3 wt %): 93.2%; Purity at Day 180 ([2]; 3 wt %): 87.8%; Purity at day 0 ([2]; 3 wt %): 98.6%; Purity at Day 30 ([2]; 5 wt %): 97.3%; Purity at Day 90 ([2]; 5 wt %): 94.9%; Purity at Day 180 ([2]; 5 wt %): 90.5%; Purity at day 0 ([2]; 5 wt %): 98.7%; Purity at Day 30 ([2]; 7 wt %): 97.6%; Purity at Day 90 ([2]; 7 wt %): 95.2%; Purity at Day 180 ([2]; 7 wt %): 91.7%; Purity at day 0 ([2]; 7 wt %): 98.7%; Purity at Day 30 ([2]; 8 wt %): 97.7%; Purity at Day 90 ([2]; 8 wt %): 95.2%; Purity at Day 180 ([2]; 8 wt %): 91.6%; Purity at day 0 ([2]; 8 wt %): 98.6%; Purity at Day 30 ([2]; 10 wt %): 97.5%; Purity at Day 90 ([2]; 10 wt %): 95.3%; Purity at Day 180 ([2]; 10 wt %): 91.7%; Purity at day 0 ([2]; 10 wt %): 98.6%; Purity at Day 30 ([2]; 15 wt %): 97.7%; Purity at Day 90 ([2]; 15 wt %): 95.3%; Purity at Day 180 ([2]; 15 wt %): 91.8%; Purity at day 0 ([2]; 15 wt %): 98.8%; Purity at Day 30 ([2]; 20 wt %): 97.5%; Purity at Day 90 ([2]; 20 wt %): 95.1%; Purity at Day 180 ([2]; 20 wt %): 91.5%; Purity at day 0 ([2]; 20 wt %): 98.6%; Purity at Day 30 ([2]; 30 wt %): 97.5%; Purity at Day 90 ([2]; 30 wt %): 95.1%; Purity at Day 180 ([2]; 30 wt %): 91.6%; Purity at day 0 ([2]; 30 wt %): 98.7%; Purity at Day 30 ([2]; 50 wt %): 97.7%; Purity at Day 90 ([2]; 50 wt %): 95.3%; Purity at Day 180 ([2]; 50 wt %): 91.8%; Purity at day 0 ([2]; 50 wt %): 98.7%
